ChEMBL document CHEMBL4251699, “In Search of the Optimal Macrocyclization Site for Neurotensin” (ACS Med Chem Lett, 2018)
Numbered stars: 1 amine (or outer) side, 2 acyl side, 3 side chain; on linkers, the order of the positions; unused ones are H or OH. Bridge positions count the residues as written; N and C are the ends. Square brackets hold non-standard residues; d marks the D form. Peptide text beside a SMILES is read from it. * marks the point of attachment. X1 = O=C([C@H](Cc1ccc(O)c(CC=[*:3])c1)N[*:1])[*:2]; X3 = C=CCc1cc(C[C@H](N[*:1])C(=O)[*:2])ccc1O; Ser(allyl) = C=CCOC[C@H](N)C(=O)O; AllylGly = C=CC[C@H](N)C(=O)O; X2 = C=CCCCCCCC(=O)*

How the values were obtained:
[1] = target: T1, Neurotensin receptor type 1 (Homo sapiens, UniProt P30989); test: Displacement of 125I-[Tyr3]-NT from human NTS1 receptor expressed in CHO-K1 cell membranes after 60 mins by gamma-counting method
[2] = target: T1, Neurotensin receptor type 1; test: Agonist activity at GFP10-tagged human NTS1 expressed in CHO-K1 cells assessed as Rluc2-fused beta-arrestin2 recruitment after 20 mins by BRET assay; assay type: functional, cell-based
[3] = Half life in rat plasma by UPLC-MS analysis; assay type: ADME, cell-free

T1 sequence (P30989 whole entry, the tested form may be a part): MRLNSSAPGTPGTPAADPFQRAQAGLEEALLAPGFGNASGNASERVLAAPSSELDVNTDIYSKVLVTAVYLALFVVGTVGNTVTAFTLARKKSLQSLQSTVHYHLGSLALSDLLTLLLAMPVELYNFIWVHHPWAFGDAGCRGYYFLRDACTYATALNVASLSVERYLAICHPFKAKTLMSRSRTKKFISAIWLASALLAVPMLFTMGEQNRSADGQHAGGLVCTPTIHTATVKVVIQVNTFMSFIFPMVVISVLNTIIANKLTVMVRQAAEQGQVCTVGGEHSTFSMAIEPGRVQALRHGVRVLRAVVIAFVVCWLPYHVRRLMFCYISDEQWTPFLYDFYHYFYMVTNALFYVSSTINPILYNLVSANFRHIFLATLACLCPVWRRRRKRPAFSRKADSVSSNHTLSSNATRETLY

Row | Compound | IC50 [1] [µM] | EC50 [2] [µM] | half-life [3] [h]
1 | CC[C@H](C)[C@H](NC(=O)[C@@H]1Cc2ccc(O)c(c2)CC=CCCCCCCC(=O)N[C@@H](CCCCN)C(=O)N2CCC[C@H]2C(=O)N1)C(=O)N[C@@H](CC(C)C)C(=O)O | 0.4 | 1.37 | 12
2 | C=CC[C@H](NC(=O)[C@H](Cc1ccc(O)cc1)NC(=O)[C@@H]1CCCN1C(=O)[C@H](CCCCN)NC(=O)[C@@H](N)CC=C)C(=O)N[C@@H](CC(C)C)C(=O)O (H-[AllylGly]KPY[AllylGly]L-OH) | 1.7 | – | –
3 | C=CCCCCCCC(=O)N[C@@H](CCCCN)C(=O)N1CCC[C@H]1C(=O)N[C@@H](Cc1ccc(O)c(CC=C)c1)C(=O)N[C@H](C(=O)N[C@@H](CC(C)C)C(=O)O)[C@@H](C)CC (X2-KP[X3]IL-OH) | 1.4 | – | –
4 | CC[C@H](C)[C@H](NC(=O)[C@@H]1Cc2ccc(O)c(c2)CC=CCOC[C@H](NC(=O)[C@@H](N)CCCCN)C(=O)N2CCC[C@H]2C(=O)N1)C(=O)N[C@@H](CC(C)C)C(=O)O (H-K[Ser(allyl)]P[X1]IL-OH; staple 2-4) | 10.3 | – | –
5 | CC[C@H](C)[C@H](NC(=O)[C@@H]1Cc2ccc(O)c(c2)CC=CC[C@H](NC(=O)[C@@H](N)CCCCN)C(=O)N2CCC[C@H]2C(=O)N1)C(=O)N[C@@H](CC(C)C)C(=O)O (H-K[AllylGly]P[X1]IL-OH; staple 2-4) | 7.6 | – | –
6 | CC[C@H](C)[C@H](NC(=O)[C@H](Cc1ccc(O)cc1)NC(=O)[C@@H]1CCCN1C(=O)[C@H](CCCNC(=N)N)NC(=O)[C@@H](N)CCCNC(=N)N)C(=O)N[C@@H](CC(C)C)C(=O)O | – | – | 0.05

Now from value to compound:

Row | IC50 [1] [µM] | EC50 [2] [µM] | half-life [3] [h] | Compound
7 | 14.3 | – | – | CC(C)C[C@H](NC(=O)[C@H]1CC=CC[C@H](N)C(=O)N[C@@H](CCCCN)C(=O)N2CCC[C@H]2C(=O)N[C@@H](Cc2ccc(O)cc2)C(=O)N1)C(=O)O
8 | 19.8 | – | – | CC(C)C[C@H](NC(=O)[C@H]1CC=CC[C@@H](N)C(=O)N[C@@H](CCCCN)C(=O)N2CCC[C@H]2C(=O)N[C@@H](Cc2ccc(O)cc2)C(=O)N1)C(=O)O
9 | 10 | – | – | CC(C)C[C@H](NC(=O)[C@@H]1CC=CC[C@@H](N)C(=O)N[C@@H](CCCCN)C(=O)N2CCC[C@H]2C(=O)N[C@@H](Cc2ccc(O)cc2)C(=O)N1)C(=O)O
10 | 29.8 | – | – | CC(C)C[C@H](NC(=O)[C@@H]1COCC=CCc2cc(ccc2O)C[C@H](NC(=O)[C@@H]2CCCN2C(=O)[C@@H](N)CCCCN)C(=O)N1)C(=O)O
11 | 17 | – | – | CC(C)C[C@H](NC(=O)[C@@H]1CC=CC[C@H](N)C(=O)N[C@@H](CCCCN)C(=O)N2CCC[C@H]2C(=O)N[C@@H](Cc2ccc(O)cc2)C(=O)N1)C(=O)O
12 | > 100 | – | – | CC[C@H](C)[C@@H]1NC(=O)[C@H](Cc2ccc(O)cc2)NC(=O)[C@@H]2CCCN2C(=O)[C@@H](NC(=O)[C@@H](N)CCCCN)CC=CC[C@@H](C(=O)O)NC1=O (H-K[AllylGly]PYI[AllylGly]-OH; staple 2-6)
13 | > 100 | – | – | CC(C)C[C@H](NC(=O)[C@@H]1COCC=CCOC[C@H](N)C(=O)N[C@@H](CCCCN)C(=O)N2CCC[C@H]2C(=O)N[C@@H](Cc2ccc(O)cc2)C(=O)N1)C(=O)O (H-[Ser(allyl)]KPY[Ser(allyl)]L-OH; staple 1-5)
